Target: DPIV (Homo sapiens, UniProt P27487)
Test: DPIV Inhibition Assay
Format: biochemical
Settings: pH 8; substrate L-alanyl-L-proline-para-nitroanilide; inhibitor stood in pH 8 buffer overnight; absorbance 410 nm
Method: The inhibitor solution was prepared by dissolving 3-5 mg of inhibitor in pH 2 solution (0.01 N HCl), such that the concentration of the solution was equal to 1 mg/10 μL. A 10 μL sample of this solution was then added to 990 μL of pH 8 buffer (0.1 M HEPES, 0.14 M NaCl), and the solution was allowed to stand at room temperature overnight.
The enzyme solution was prepared by diluting 20 μL of DPIV (concentration 2.5 μM) into 40 mL of pH 8 buffer.
The substrate solution was prepared by dissolving 2.0 mg of L-alanyl-L-proline-para-nitroanilide into 20 mL of pH 8 buffer.
250 μL of enzyme solution was added to well #B1 to #H1, #A2 to #H2, and #A3 to #H3 of a 96 well plate, while well #Al received 250 μL of pH 8 buffer instead of enzyme solution. 90 μL of pH 8 buffer was then added to column 5 (from well #A5 to #H5).
A 1:10 dilution was then performed by adding inhibitor solution to #A5 and the solution was mixed well before transferring 10 μL of this solution from #A5 to #B5. The solution in #B5 was then mixed well before transferring 10 μL of this solution from #B5 to #C5. The solution in #C5 was then mixed well before transferring 10 μL of this solution from #C5 to #D5. The solution in #D5 was then mixed well before transferring 10 μL of this solution from #D5 to #E5. The solution in #E5 was then mixed well before transferring 10 μL of this solution from #E5 to #F5. The solution in #F5 was then mixed well before transferring 10 μL of this solution from #F5 to #G5. The solution in #G5 was then mixed well before transferring 10 μL of this solution from #G5 to #H5.
A 30 μL aliquot was then transferred from #H5 to #H3 for row H, and the contents were mixed well. The analogous procedure was repeated for rows G, F, E, D, C, B, and A sequentially. The plate was then shaken on a plate shaker for 5 minutes before allowing the plate to incubate at room temperature for an additional 5 minutes.
Once the plate had been allowed to incubate, 30 μL of substrate was added to each well except well #A1. The plate was then placed on a plate shaker for 5 minutes before allowing the plate to incubate at room temperature for 25 minutes. The absorbance was then immediately read at a wavelength of 410 nm.

Sequence of DPIV (P27487 whole entry): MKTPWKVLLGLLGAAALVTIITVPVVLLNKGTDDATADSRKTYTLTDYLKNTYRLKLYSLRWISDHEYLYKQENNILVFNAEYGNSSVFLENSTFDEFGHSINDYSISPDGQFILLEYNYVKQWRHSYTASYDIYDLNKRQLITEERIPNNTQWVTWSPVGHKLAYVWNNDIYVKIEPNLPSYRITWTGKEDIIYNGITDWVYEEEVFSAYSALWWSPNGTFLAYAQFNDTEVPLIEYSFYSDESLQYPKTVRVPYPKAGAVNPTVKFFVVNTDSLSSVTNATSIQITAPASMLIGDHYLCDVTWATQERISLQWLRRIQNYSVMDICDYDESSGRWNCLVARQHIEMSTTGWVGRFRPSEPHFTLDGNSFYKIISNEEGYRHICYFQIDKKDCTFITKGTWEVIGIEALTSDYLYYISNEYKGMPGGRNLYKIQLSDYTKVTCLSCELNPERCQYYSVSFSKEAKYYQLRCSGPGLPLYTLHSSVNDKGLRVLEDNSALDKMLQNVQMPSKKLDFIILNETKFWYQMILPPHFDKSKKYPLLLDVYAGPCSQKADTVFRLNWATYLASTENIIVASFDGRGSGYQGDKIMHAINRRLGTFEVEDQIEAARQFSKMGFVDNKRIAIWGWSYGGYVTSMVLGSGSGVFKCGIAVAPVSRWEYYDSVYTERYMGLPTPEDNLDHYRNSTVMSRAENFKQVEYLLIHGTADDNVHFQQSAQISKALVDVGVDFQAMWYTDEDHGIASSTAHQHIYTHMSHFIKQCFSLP

| SMILES | IC50 |
| --- | --- |
| CC(B(O)O)N1CCC(N)C1=O (stereo not drawn) [D] | 0.034 µM |
| C[C@H](B(O)O)N1CCC(N)C1=O (stereo partly drawn) [C] | 0.34 µM |
| C[C@@H](B(O)O)N1CCC(N)C1=O (stereo partly drawn) [B] | 0.04 µM |
| C[C@H](C#N)N1CCC(N)C1=O (stereo partly drawn) [A] | 11 µM |
| C[C@@H](B(O)O)N1CC[C@](C)(N)C1=O [F] | 69 µM |
| CC[C@H](B(O)O)N1CC[C@](N)(CC)C1=O [Compound I] | 0.025 µM |
| CC(B(O)O)N1CCC(C)(N)C1=O (stereo not drawn) [E] | 0.023 µM |

Continued, values first:

| IC50 | SMILES |
| --- | --- |
| 0.003 µM | CC[C@@H](B(O)O)N1CC[C@](N)(Cc2ccccc2)C1=O [N] |
| 0.63 µM | CN[C@]1(Cc2ccccc2)CCN([C@@H](C)B(O)O)C1=O [O] |
| 0.036 µM | C[C@@H](B(O)O)N1CC[C@](N)(CC(=O)O)C1=O [K] |
| 0.0026 µM | C[C@@H](B(O)O)N1CC[C@](N)(Cc2ccccc2)C1=O [M] |
| 0.0021 µM | C[C@@H](B(O)O)N1CC[C@](N)(Cc2cccc3ccccc23)C1=O [P] |
| 0.0099 µM | C[C@@H](B(O)O)N1CC[C@]2(CCCN2)C1=O [Q] |
| 0.0019 µM | CCCC[C@@]1(N)CCN([C@@H](C)B(O)O)C1=O [J] |
| 0.0067 µM | C[C@@H](B(O)O)N1CC[C@@](C)(N)C1=O [G] |
